This is an account of results in patent publication US5409932A, “Piperazine-substituted pyrroloanthracenes” (Bayer AG, priority 1993, dated 1995).

Assay [1] concerns Adjuvant Arthritis model in the Rat. In words: Adjuvant Arthritis model in the Rat (paw swelling). It counts as in vivo. The note with it: Lewis rats; for inhibition in vivo at 10 mg/kg: Rattus norvegicus, ip, 384 h, 10 mg/kg i.p., days 0, 1, 2, 5, 7, 9, 12 and 14, day 16 vs day 0, read-out: Inhibition of the swelling (%), after administration of 10 mg/kg i.p.; for Inhibition of the swelling (%), after administration of 10 mg/kg i.p.: days 0, 1, 2, 5, 7, 9, 12 and 14, day 16 vs day 0. As for the experimental part:
Adjuvant Arthritis model in the Rat
Freund's adjuvant (FA) is prepared by addition of 10 mg/ml of heat-killed Mycobacterium butyricum to extra-heavy mineral oil. Lewis rats receive a 0.1 ml injection of FA (1 mg/animal) subcutaneously in the right hind paw. An acute inflammation takes place there, which is characterized by reddening, edema and a predominant neutrophilic cell infiltration (primary reaction). Tumescent areas in the treated paw on day 5 are followed between day 10-12 by an increase in the swelling (chronic inflammatory reaction) and the occurrence of a swelling in the opposite untreated paw (secondary immune response).
The cell infiltration of the chronic inflammation and the second immune response are mainly mononuclear, which indicates the presence of T-cell mediated immunity. The animals are observed daily, and the swelling is measured in millimeters on days 12 and 16 using a hand-adjustable micrometer. The swelling reaches its peak on the 16th day, on which the animals are sacrificed and tissue samples are taken for histological evaluation.
The extent of the swelling is determined by calculation of the greatest difference in the malleolus diameter between the 16th and the 0th day.
The animals receive the compounds according to the invention in a suspension of 5% polyethylene glycol and 0.5% Tween 80 in phosphate buffer solution p.o. or i.p. on days 0, 1, 2, 5, 7, 9, 12 and 14 [cf. for this purpose L. Sokoloff, 1984, Int. Rev. Exp. Pathol. 26, 107; M. E. J. Bittingham et al., 1989, J. Exp. Med. 171, 339; K. M. Conholly et al., 1989, Agents and Actions 27, 328].

Assay [2] concerns human T cells. In words: Inhibition of 5-HT-dependent T Cell Proliferation. The note with it: monocyte-free human T cells stimulated with PWM and 5-HT, 3H-thymidine incorporation, 7 days. In kind it is cell-based. The text has this:
The in vitro activity of the compounds according to the invention results from their capability to inhibit T cell proliferation, which is previously stimulated by serotonin.
Inhibition of 5-HT-dependent T Cell Proliferation
Peripheral mononuclear blood cells (PBMC) are obtained from the buffy coat of the blood of healthy subjects. After isolation by means of isolymph gradients (Pharmacia), the PBMC are washed twice and used directly. Purified T cells are obtained by E rosette formation with sheep erythrocytes [cf. Blue, M.-L. , J. F. Daley, H. Levine, K. A. Craig and S. F. Schlossmann, 1986, Biosynthesis and surface expression of T8 by peripheral blood T4+cells in vitro, J. Immunol. 137, 1202]. Monocytes are partially removed by adhesion to tissue culture plates or flasks. PBMC, T cells or purified T cells (depleted in monocytes) at 5×10^5 /ml, 100 μl/well are cultured in RPMI 1640 medium with 10% fetal calf serum (GIBCO) and L-glutamine in 96-well microculture plates (Becton--Dickinson)under a 5% CO2 atmosphere at 37° C. for 7 days. The cultures are treated with 1 μCi of ^3 H-thymidine for 6 h on the 7th day and collected on filter paper, and the incorporated radioactivity is determined by means of liquid scintillation counting.
The test substances are dissolved in 10 mM HCl in order to achieve a final concentration of 1 mM in each case. The compounds are diluted serially 3×with medium in order to obtain a final concentration between 33 μM-0.1 μM. PWM (1:200, pokeweed mitogen) and 5-HT (100 μm, serotonin), which contain the test substances, are added to monocyte-free human T cells. The positive control (maximum proliferation) is obtained from cultures containing T cells, PWM and 5-HT. The negative control (minimal proliferation) is obtained from cultures containing T cells and PWM without 5-HT. The inhibitory activity of the test substances is expressed as the IC50 in μM. (see also WO 92/04015)
(Dividing cells build labelled thymidine or BrdU into new DNA.)

SMILES strings stand for the structures. Where only a bound is given, the exact number is not on record here.

For `O=C1C2C3c4ccccc4C(c4ccccc43)C2C(=O)N1CCCN1CCN(c2ccc(Cl)cc2)CC1` (stereo not shown) [Example 2], the inhibition in vivo at 10 mg/kg in assay [1] stood at 4%.
For orientation: IC50 means the point on the concentration scale where inhibition reaches its midpoint. Take `Cc1ccc(N2CCN(CCCN3C(=O)C4C5c6ccccc6C(c6ccccc65)C4C3=O)CC2)cc1` (stereo not shown) [Example 11]: the IC50 in assay [2] (Homo sapiens, T-cell) is > 10 µM. For the same molecule, the inhibition in vivo at 10 mg/kg in assay [1] was found to be 32%.
Taken in the same sequence, the figures for `CC12c3ccccc3C(c3ccccc31)C1C(=O)N(CCCN3CCN(c4ccccc4)CC3)C(=O)C12` (stereo not shown) [Example 29] were > 10 µM and 24%.
For `CC12c3ccccc3C(c3ccccc31)C1C(=O)N(CCCN3CCN(c4ccc(Cl)cc4)CC3)C(=O)C12` (stereo not shown) [Example 30], it took 5 µM to reach half-maximal inhibition in assay [2] (Homo sapiens, T-cell) (IC50). Besides, the inhibition in vivo at 10 mg/kg in assay [1] was 47%.
Taken in the same sequence, the figures for `O=C1C2C3c4ccccc4C(CO)(c4ccccc43)C2C(=O)N1CCCN1CCN(c2ccc(F)cc2)CC1` (stereo not shown) [Example 33] were > 10 µM and 33%.
Turning to `CC12C(=O)N(CCCN3CCN(c4ccccc4)CC3)C(=O)C1C1c3ccccc3C2c2ccccc21` (stereo not shown) [Example 39], in assay [2] (Homo sapiens, T-cell), the IC50 was > 10 µM. Further, the inhibition in vivo at 10 mg/kg in assay [1] came to 20%.
Taken in the same sequence, the figures for `CC12C(=O)N(CCCN3CCN(c4ccc(F)cc4)CC3)C(=O)C1C1c3ccccc3C2c2ccccc21` (stereo not shown) [Example 40] were 5 µM and 29%.
In the case of `Fc1ccc(N2CCN(CCCN3CC4C5c6ccccc6C(c6ccccc65)C4C3)CC2)cc1` (stereo not shown) [Example 58, 13-{3-[4-(4-Fluorophenyl)-piperazin-1-yl]propyl}-9,10,11,12,14,15-hexahydro-9,10[3', 4']pyrroloanthracene], in assay [2] (Homo sapiens, T-cell), the midpoint of inhibition, the IC50, lay at 5 µM. The inhibition in vivo at 10 mg/kg in assay [1] is 40%.
Regarding `Clc1ccc(N2CCN(CCCN3CC4C5c6ccccc6C(c6ccccc65)C4C3)CC2)cc1` (stereo not shown) [Example 59], in assay [2] (Homo sapiens, T-cell), it took 3 µM to reach half-maximal inhibition (IC50). Moreover, the “Inhibition of the swelling (%), after administration of 10 mg/kg i.p.” value in assay [1] was 53%.
Take `c1ccc(N2CCN(CCN3CC4C5c6ccccc6C(c6ccccc65)C4C3)CC2)cc1` (stereo not shown) [Example 60]: in assay [2] (Homo sapiens, T-cell), the 50% inhibitory concentration (IC50) was 5 µM. Moreover, the inhibition in vivo at 10 mg/kg in assay [1] turned out to be 40%.
Taken in the same sequence, the figures for `c1ccc(N2CCN(CCCN3CC4C5c6ccccc6C(c6ccccc65)C4C3)CC2)cc1` (stereo not shown) [Example 61] were 5 µM and 50%.
Taken in the same sequence, the figures for `c1ccc(N2CCN(CCCCN3CC4C5c6ccccc6C(c6ccccc65)C4C3)CC2)cc1` (stereo not shown) [Example 62] were 5 µM and 90%.
Taken in the same sequence, the figures for `c1ccc(N2CCN(CCCCCN3CC4C5c6ccccc6C(c6ccccc65)C4C3)CC2)cc1` (stereo not shown) [Example 63] were 0.5 µM and 26%.
`c1ccc(N2CCN(CCCCCCN3CC4C5c6ccccc6C(c6ccccc65)C4C3)CC2)cc1` (stereo not shown) [Example 64]: the half-inhibitory concentration (IC50) in assay [2] (Homo sapiens, T-cell) worked out at 1 µM. Further, the inhibition in vivo at 10 mg/kg in assay [1] is 76%.
Molecule `COc1ccccc1N1CCN(CCCCN2CC3C4c5ccccc5C(c5ccccc54)C3C2)CC1` (stereo not shown) [Example 71] registered an IC50 in assay [2] (Homo sapiens, T-cell) of 5 µM. In assay [1], the inhibition in vivo at 10 mg/kg turned out to be 82%.
On to `Fc1ccccc1N1CCN(CCCCN2CC3C4c5ccccc5C(c5ccccc54)C3C2)CC1` (stereo not shown) [Example 72], for which the IC50 in assay [2] (Homo sapiens, T-cell) came out at 2 µM. For the same molecule, the inhibition in vivo at 10 mg/kg in assay [1] came to 87%.
Taken in the same sequence, the figures for `Cc1ccc(N2CCN(CCCCN3CC4C5c6ccccc6C(c6ccccc65)C4C3)CC2)cc1` (stereo not shown) [Example 74] were 0.6 µM and 76%.
With `Clc1ccccc1N1CCN(CCCN2CC3C4c5ccccc5C(c5ccccc54)C3C2)CC1` (stereo not shown) [Example 82], in assay [2] (Homo sapiens, T-cell), half-maximal inhibition (IC50) was put at 5 µM. For the same molecule, the inhibition in vivo at 10 mg/kg in assay [1] turned out to be 35%.
Taken in the same sequence, the figures for `CCOc1ccccc1N1CCN(CCCN2CC3C4c5ccccc5C(c5ccccc54)C3C2)CC1` (stereo not shown) [Example 87] were 5 µM and 22%.
Taken in the same sequence, the figures for `Cc1cccc(C)c1N1CCN(CCCN2CC3C4c5ccccc5C(c5ccccc54)C3C2)CC1` (stereo not shown) [Example 88] were 1 µM and 73%.
As to `Cc1ccc(N2CCN(CCCN3CC4C5c6ccccc6C(c6ccccc65)C4C3)CC2)c(C)c1` (stereo not shown) [Example 90], the IC50 in assay [2] (Homo sapiens, T-cell) was 5 µM. Also, in assay [1], the inhibition in vivo at 10 mg/kg stood at 45%.
With `Fc1ccc(N2CCN(CCCN3CC4C5c6ccccc6C(Cl)(c6ccccc65)C4C3)CC2)cc1` (stereo not shown) [Example 100], the half-maximal inhibitory concentration (IC50) in assay [2] (Homo sapiens, T-cell) worked out at 2 µM.
As for `NCC12c3ccccc3C(c3ccccc31)C1CN(CCCN3CCN(c4ccc(F)cc4)CC3)CC12` (stereo not shown) [Example 101], in assay [2] (Homo sapiens, T-cell), the IC50 is 1 µM.
Still for that read-out and setting: then `C=CC12c3ccccc3C(c3ccccc31)C1CN(CCCN3CCN(c4ccc(F)cc4)CC3)CC12` (stereo not shown) [Example 102], with 2 µM.
Still for that read-out and setting: then `Fc1ccc(N2CCN(CCCN3CC4C5c6ccccc6C(C=Cc6ccccc6)(c6ccccc65)C4C3)CC2)cc1` (stereo not shown) [Example 103], with 2 µM; and `CC12CN(CCCN3CCN(c4ccccc4)CC3)CC1C1c3ccccc3C2c2ccccc21` (stereo not shown) [Example 104], with 2 µM.
In assay [2] (Homo sapiens, T-cell), `CC12CN(CCCN3CCN(c4ccc(F)cc4)CC3)CC1C1c3ccccc3C2c2ccccc21` (stereo not shown) [Example 105] displayed a 50% inhibitory concentration (IC50) of 2 µM.
The same measure, in the same setting: next, `COc1cc(N2CCN(CCCN3CC4C5c6ccccc6C(c6ccccc65)C4C3)CC2)cc(OC)c1OC` (stereo not shown) [Example 106]: 0.5 µM; `COC(OC)C12c3ccccc3C(c3ccccc31)C1CN(CCCN3CCN(c4ccc(F)cc4)CC3)CC12` (stereo not shown) [Example 107]: 1 µM.
In the case of `Clc1ccc(N2CCN(CCCN3CC4C5c6ccccc6C(c6ccccc65)C4C3)CC2)cc1` (stereo not shown) [Example 108], the half-maximal inhibitory concentration (IC50) in assay [2] was 4 µM. Further, the “Inhibition of the swelling (%), after administration of 10 mg/kg i.p.” value in assay [1] was determined as 55%.
Taken in the same sequence, the figures for `Clc1ccc(N2CCN(CCCN3CC4C5c6ccccc6C(c6ccccc65)C4C3)CC2)cc1` (stereo not shown) [Example 109] were 5 µM and 34%.
The molecule `CC12c3ccccc3C(C)(c3ccccc31)C1C(=O)N(CCCN3CCN(c4ccc(F)cc4)CC3)C(=O)C12` (stereo not shown) [Example 110] displayed a 50% inhibitory concentration (IC50) in assay [2] of 2 µM.
The molecule `O=C1C2C(C(=O)N1CCCN1CCN(c3ccc(F)cc3)CC1)C1(Br)c3ccccc3C2(Br)c2ccccc21` (stereo not shown) [Example 111] gave an IC50 in assay [2] of 10 µM.
`O=C1C2C(CN1CCCN1CCN(c3ccc(F)cc3)CC1)C1(Cl)c3ccccc3C2(Cl)c2ccccc21` (stereo not shown) [Example 112] registered an IC50 in assay [2] (Homo sapiens, T-cell) of 5 µM.
Still for that read-out and setting: next, `O=C1C2C3c4ccccc4C(CCl)(c4ccccc43)C2CN1CCCN1CCN(c2ccc(F)cc2)CC1` (stereo not shown) [Example 113]: 2 µM; `O=C1C2C(CN1CCCN1CCN(c3ccc(F)cc3)CC1)C1c3ccccc3C2(c2ccccc2)c2ccccc21` (stereo not shown) [Example 114]: 2 µM.
On the same count and under the same terms, next, `O=C1C2C3c4ccccc4C(c4ccccc43)C2CN1CCCN1CCN(c2cc(Cl)cc(Cl)c2)CC1` (stereo not shown) [Example 115]: 2 µM.
`O=C1C2C(CN1CCCN1CCN(c3ccccc3)CC1)C1(Cl)c3ccccc3C2(Cl)c2ccccc21` (stereo not shown) [Example 116]: in assay [2] (Homo sapiens, T-cell), the IC50 was 2 µM.
Still for that read-out and setting: next, `O=C1N(CCCN2CCN(c3ccc(F)cc3)CC2)CC2C3c4ccccc4C(c4ccccc43)C12c1ccccc1` (stereo not shown) [Example 117]: 2 µM.
